The text below walks through data of ChEMBL document CHEMBL1122349, “Mannich bases of 4-phenyl-3-buten-2-one: a new class of antiherpes agent” (1983).

In experiment [1] the test system is Human alphaherpesvirus 1. Description: Reduction of lesion (from control), in hairless mouse model infected with HVH-1(antiherpes activity). The experiment is classed as functional, herpes simplex virus. Set-up: concentration or dose not given beside the values.
Experiment [2] relates to Human alphaherpesvirus 1. The experiment can be described thus: Average lesion score in hairless mouse model infected with HVH-1(antiherpes activity). The experiment is classed as functional, herpes simplex virus.
For experiment [3], the system named is Human alphaherpesvirus 1. The experiment can be described thus: Antiherpes (Type-1) activity in mouse paralysis model expressed as animals paralyzed treated/percent animals paralyzed control (% T/C). The experiment is classed as functional, herpes simplex virus.
The species entered for experiment [4] is Mus musculus. The experiment can be described thus: Reduction of lesion severity, in hairless mouse test against herpes type-1,at 0.37% dose in 1.4% aq.polyvinyl alcohol. The experiment is classed as functional.
In experiment [5] the test system is Human alphaherpesvirus 1. Description: Reduction of lesion severity, in hairless mouse test against herpes type-1,at 0.75% dose in 1.4% aq.polyvinyl alcohol. The experiment is classed as functional, herpes simplex virus.
The species named for experiment [6] is Mus musculus. Description: Reduction of lesion severity, in hairless mouse test against herpes type-1,at 1.5% dose in 1.4% aq.polyvinyl alcohol. The experiment is classed as functional.
The test system of experiment [7] is Human alphaherpesvirus 1. The experiment can be described thus: Reduction of lesion severity, in hairless mouse test against herpes type-1,at 3% dose in 1.4% aq.polyvinyl alcohol. The experiment is classed as functional, herpes simplex virus.
The species entered for experiment [8] is Mus musculus. Description: Average lesion score in hairless mouse test against Herpes type-1 at dose of 0.37% in 1.4% aq.polyvinyl alcohol. The experiment is classed as functional.
Experiment [9] is filed under the species Mus musculus. Description: Average lesion score in hairless mouse test against Herpes type-1 at dose of 1.5% in 1.4% aq.polyvinyl alcohol. The experiment is classed as functional.
The subject of experiment [10] is Human alphaherpesvirus 1. Description: Average lesion score in hairless mouse test against Herpes type-1 at dose of 3% in 1.4% aq.polyvinyl alcohol. The experiment is classed as functional, herpes simplex virus.
The test system of experiment [11] is Human alphaherpesvirus 1. Description: Average lesion score in hairless mouse test against Herpes type-1 at dose of 0.75% in 1.4% aq.polyvinyl alcohol. The experiment is classed as functional, herpes simplex virus.
The species named for experiment [12] is Mus musculus. Description: Reduction of lesion severity, in hairless mice test against herpes type-2,at 0.37% dose in 1.4% aq.polyvinyl alcohol. The experiment is classed as functional.
The species entered for experiment [13] is Mus musculus. Description: Reduction of lesion severity, in hairless mice test against herpes type-2,at 0.75% dose in 1.4% aq.polyvinyl alcohol. The experiment is classed as functional.
The species entered for experiment [14] is Mus musculus. The experiment can be described thus: Reduction of lesion severity, in hairless mice test against herpes type-2,at 1.5% dose in 1.4% aq.polyvinyl alcohol. The experiment is classed as functional.
The species entered for experiment [15] is Mus musculus. The experiment can be described thus: Reduction of lesion severity, in hairless mice test against herpes type-2,at 2% dose in 1.4% aq.polyvinyl alcohol. The experiment is classed as functional.
The species named for experiment [16] is Mus musculus. The experiment can be described thus: Reduction of lesion severity, in hairless mice test against herpes type-2,at 5% dose in 1.4% aq.polyvinyl alcohol. The experiment is classed as functional.
The species entered for experiment [17] is Mus musculus. The experiment can be described thus: Reduction of lesion severity, in hairless mouse test against herpes type-1,at 5% dose in 1.4% aq.polyvinyl alcohol. The experiment is classed as functional.
For experiment [18], the species on record is Mus musculus. Description: Average lesion score in hairless mouse test against Herpes type-1 at dose of 5% in 1.4% aq.polyvinyl alcohol. The experiment is classed as functional.

Several values for one entry are separate records, joined by “and”; a condition that tells them apart may be missing. Identical values can stand only once.

As usually defined, the T/C is the result in the treated group divided by that in the control group, in per cent.

On to `CN(C)CCC(=O)/C=C/c1ccccc1.Cl`, for which the Reduction in the experiment on Human alphaherpesvirus 1 [1] worked out at 30%. Besides, the Average lesion score in the experiment with Human alphaherpesvirus 1 [2] is on record as 1.8.

The compound `Cl.OC(/C=C/c1ccccc1)CCN1CCOCC1` (stereo not drawn) had a T/C in the experiment with Human alphaherpesvirus 1 [3] of 88%.

`O=C(/C=C/c1ccccc1)CCSc1ccccc1` returned a Reduction in the experiment on Human alphaherpesvirus 1 [1] of 10%. The compound further yielded an Average lesion score in the experiment with Human alphaherpesvirus 1 [2] of 2.5.

`COc1cccc(/C=C/C(=O)CC[N+](C)(C)C)c1.[I-]`: the Reduction in the experiment with Human alphaherpesvirus 1 [1] is on record as 86%. In addition, the Average lesion score in the experiment with Human alphaherpesvirus 1 [2] was 0.33.

As for `C[S+]([O-])CCC(=O)/C=C/c1ccccc1` (stereo not drawn), in the experiment with Human alphaherpesvirus 1 [1], the Reduction is recorded as 48%. The Average lesion score in the experiment with Human alphaherpesvirus 1 [2] is 1.3.

As for `CC(C)(C[N+](C)(C)C)C(=O)/C=C/c1ccccc1.[I-]`, in the experiment on Human alphaherpesvirus 1 [1], the Reduction is 13%. Besides, the Average lesion score with Human alphaherpesvirus 1 [2] is 2.33.

In the experiment with Human alphaherpesvirus 1 [3], `O=C(CCc1ccc(Cl)c(Cl)c1)CCN1CCOCC1` came in with a T/C of 50%.

Turning to `O=C(/C=C/c1ccccc1)CCNc1ccccc1`, the Reduction with Human alphaherpesvirus 1 [1] amounted to 9%. Besides, the Average lesion score in the experiment on Human alphaherpesvirus 1 [2] was found to be 2.67.

Take `CC(C[N+](C)(C)C)C(=O)/C=C/c1ccccc1.[I-]` (stereo not drawn): the Reduction in the experiment on Human alphaherpesvirus 1 [1] was determined as 89%. Also, the Average lesion score in the experiment with Human alphaherpesvirus 1 [2] amounted to 0.33.

For the compound `C[S+](C)CCC(=O)/C=C/c1ccccc1.[I-]`, the Reduction with Human alphaherpesvirus 1 [1] is listed as 82%; in the experiment filed under Mus musculus [4], 76%; in the experiment with Human alphaherpesvirus 1 [5], 76%; in the experiment filed under Mus musculus [6] it was 82%; in the experiment with Human alphaherpesvirus 1 [7], 88%. Besides, the Average lesion score in the experiment listed under Mus musculus [8] stood at 0.67; in the experiment listed under Mus musculus [9], 0.5; with Human alphaherpesvirus 1 [10] it was 0.33; with Human alphaherpesvirus 1 [11], 0.67; in the experiment on Human alphaherpesvirus 1 [2], 0.5.

Regarding `C[N+](C)(C)CCC(=O)/C=C/c1ccccc1.[I-]`, the Reduction with Human alphaherpesvirus 1 [1] is 64%; in the experiment filed under Mus musculus [4] it was 76%; in the experiment on Human alphaherpesvirus 1 [5], 76%; in the experiment listed under Mus musculus [6] it was 82%; in the experiment on Human alphaherpesvirus 1 [7] it was 88%. The Average lesion score in the experiment filed under Mus musculus [8] came out at 0.67; in the experiment listed under Mus musculus [9], 0.5; in the experiment with Human alphaherpesvirus 1 [10], 0.33; in the experiment on Human alphaherpesvirus 1 [11], 0.67; with Human alphaherpesvirus 1 [2], 1.

In the experiment on Human alphaherpesvirus 1 [1], `CCCSCCC(=O)/C=C/c1ccccc1` displayed a Reduction of 0%. This compound showed an Average lesion score in the experiment with Human alphaherpesvirus 1 [2] of 2.8.

With `CCC[S+](C)CCC(=O)/C=C/c1ccccc1.[I-]` (stereo not drawn), in the experiment with Human alphaherpesvirus 1 [1], the Reduction is listed as 74%. Further, in the experiment on Human alphaherpesvirus 1 [2], the Average lesion score turned out to be 0.67.

Compound `CCOP(=O)(CCC(=O)/C=C/c1ccccc1)OCC` gave a Reduction with Human alphaherpesvirus 1 [1] of 10%. This compound also registered an Average lesion score in the experiment on Human alphaherpesvirus 1 [2] of 2.3.

In the experiment with Human alphaherpesvirus 1 [3], `CSc1ccc(/C=C/C(=O)CCN2CCOCC2)cc1.Cl` had a T/C of 12%.

As to `Cl.O=C(/C=C/c1cccc(C(F)(F)F)c1)CCN1CCOCC1`, in the experiment on Human alphaherpesvirus 1 [3], the T/C came to 11%.

Compound `Cl.N#Cc1ccc(/C=C/C(=O)CCN2CCOCC2)cc1` showed a T/C with Human alphaherpesvirus 1 [3] of 24%.

In turn, `Cl.O=C(/C=C/c1c(Cl)cccc1Cl)CCN1CCOCC1` had a T/C in the experiment with Human alphaherpesvirus 1 [3] of 14%.

As for `Cl.O=C(/C=C/c1ccc(Cl)c(Cl)c1)CCN1CCOCC1`, the Reduction is on record as 67% in the experiment listed under Mus musculus [4], 80% with Human alphaherpesvirus 1 [5], 80% in the experiment listed under Mus musculus [6] and 80% in the experiment on Human alphaherpesvirus 1 [7]. The Average lesion score in the experiment filed under Mus musculus [8] came to 0.83; in the experiment filed under Mus musculus [9], 0.5; in the experiment on Human alphaherpesvirus 1 [10] it was 0.5; with Human alphaherpesvirus 1 [11], 0.5. In addition, in the experiment with Human alphaherpesvirus 1 [3], the T/C amounted to 0%.

Consider `CS(=O)(=O)c1ccc(/C=C/C(=O)CCN2CCOCC2)cc1.Cl`, for which, in the experiment on Human alphaherpesvirus 1 [3], the T/C is listed as 12%.

Consider `Cl.O=C(/C=C/c1ccccc1)CCN1CCOCC1`, for which the Reduction in the experiment with Human alphaherpesvirus 1 [1] is listed as 94%; in the experiment listed under Mus musculus [12], 70%; in the experiment listed under Mus musculus [13] it was 78%; in the experiment filed under Mus musculus [14] it was 78%; in the experiment listed under Mus musculus [15], 85%; in the experiment filed under Mus musculus [4], 67%. For the same compound, the Reduction in the experiment with Human alphaherpesvirus 1 [5] is on record as 67%; in the experiment filed under Mus musculus [6], 80%; in the experiment on Human alphaherpesvirus 1 [7], 87%. Further, the Average lesion score in the experiment listed under Mus musculus [8] is listed as 0.83; in the experiment listed under Mus musculus [9], 0.55; with Human alphaherpesvirus 1 [10] it was 0.33; in the experiment on Human alphaherpesvirus 1 [11] it was 0.83; in the experiment with Human alphaherpesvirus 1 [2], 0.17. This compound yielded a T/C in the experiment on Human alphaherpesvirus 1 [3] of 11%.

The compound `Cl.O=C(/C=C/c1ccc2c(c1)OCO2)CCN1CCOCC1` returned a T/C in the experiment with Human alphaherpesvirus 1 [3] of 14%.

In the experiment on Human alphaherpesvirus 1 [3], `COc1cccc(/C=C/C(=O)CCN2CCOCC2)c1.Cl` returned a T/C of 0%.

As to `Cl.O=C(/C=C/c1ccc(O)cc1)CCN1CCOCC1`, the T/C with Human alphaherpesvirus 1 [3] stood at 63%.

As to `COc1ccc(/C=C/C(=O)CCN2CCOCC2)cc1.Cl`, the T/C in the experiment on Human alphaherpesvirus 1 [3] is recorded as 25%.

`Cl.O=C(/C=C/c1cccc([N+](=O)[O-])c1)CCN1CCOCC1` showed a T/C in the experiment on Human alphaherpesvirus 1 [3] of 47%.

Turning to `Cl.O=C(/C=C/c1ccc(Cl)cc1)CCN1CCOCC1`, in the experiment with Human alphaherpesvirus 1 [3], the T/C is listed as 12%.

Turning to `Cc1ccc(/C=C/C(=O)CCN2CCOCC2)cc1.Cl`, the T/C with Human alphaherpesvirus 1 [3] is given as 38%.

In the case of `O=C(O)CP(=O)([O-])[O-].[Na+].[Na+]` [DISODIUM CARBOXYMETHYLPHOSPHONATE], the Reduction was 74% with Human alphaherpesvirus 1 [1]; 78% in the experiment listed under Mus musculus [16]; 9% with Human alphaherpesvirus 1 [5]; 69% with Human alphaherpesvirus 1 [7]; 87% in the experiment listed under Mus musculus [17]. In addition, the Average lesion score with Human alphaherpesvirus 1 [10] stood at 0.83; in the experiment filed under Mus musculus [18] it was 0.33; in the experiment with Human alphaherpesvirus 1 [11], 2.5; in the experiment with Human alphaherpesvirus 1 [2], 0.33. Further, the T/C in the experiment with Human alphaherpesvirus 1 [3] was 24% and 61%.
